# According to the supplement of paper PMC10307832:
# Assays:
# Assay in all cases: relative viability (nuclei count vs DMSO), 5 days (fraction); higher = more cells survive
# Erlotinib + Bortezomib = compound: C#Cc1cccc(Nc2ncnc3cc(OCCOC)c(OCCOC)cc23)c1 [Erlotinib] + CC(C)C[C@H](NC(=O)[C@H](Cc1ccccc1)NC(=O)c1cnccn1)B(O)O [Bortezomib] (partner 0.002 µM)
# Summary of the method: (§1)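 The day after seeding in 1536-well plates, lung cancer cell lines were treated by pin tool with a single drug, or with a fixed anchor-drug dose together with five library-drug doses (not always all listed) in √10 steps. After 5 days, a combined fix-and-stain solution (final 0.05% Triton X-100, 1% formaldehyde, 1 ug/ml Hoechst) was added. Nuclei counted on 4× images gave relative viability as treated counts over vehicle counts, reported as the median of duplicate plates.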
# Erlotinib + Alpelisib = compound: C#Cc1cccc(Nc2ncnc3cc(OCCOC)c(OCCOC)cc23)c1 [Erlotinib] + Cc1nc(NC(=O)N2CCC[C@H]2C(N)=O)sc1-c1ccnc(C(C)(C)C(F)(F)F)c1 [Alpelisib] (partner 2 µM)
# Summary of the method: as §1
# Erlotinib + AZD7762 = compound: C#Cc1cccc(Nc2ncnc3cc(OCCOC)c(OCCOC)cc23)c1 [Erlotinib] + NC(=O)Nc1cc(-c2cccc(F)c2)sc1C(=O)N[C@H]1CCCNC1 [AZD7762] (partner 0.2 µM)
# Summary of the method: as §1
# AT9283 + Luminespib = compound: O=C(Nc1c[nH]nc1-c1nc2ccc(CN3CCOCC3)cc2[nH]1)NC1CC1 [AT9283] + CCNC(=O)c1noc(-c2cc(C(C)C)c(O)cc2O)c1-c1ccc(CN2CCOCC2)cc1 [Luminespib] (partner 0.01 µM)
# Summary of the method: as §1
# AT9283 + Pictilisib = compound: O=C(Nc1c[nH]nc1-c1nc2ccc(CN3CCOCC3)cc2[nH]1)NC1CC1 [AT9283] + CS(=O)(=O)N1CCN(Cc2cc3nc(-c4cccc5[nH]ncc45)nc(N4CCOCC4)c3s2)CC1 [Pictilisib] (partner 1 µM)
# Summary of the method: as §1
Cell Line,relative viability (Erlotinib + Bortezomib; first compound 0.02 µM),relative viability (Erlotinib + Bortezomib; first compound 0.2 µM),relative viability (Erlotinib + Bortezomib; first compound 0.6325 µM),relative viability (Erlotinib + Bortezomib; first compound 2 µM),relative viability (Erlotinib + Alpelisib; first compound 0.02 µM),relative viability (Erlotinib + Alpelisib; first compound 0.2 µM),relative viability (Erlotinib + Alpelisib; first compound 0.6325 µM),relative viability (Erlotinib + Alpelisib; first compound 2 µM),relative viability (Erlotinib + AZD7762; first compound 0.02 µM),relative viability (Erlotinib + AZD7762; first compound 0.2 µM),relative viability (Erlotinib + AZD7762; first compound 0.6325 µM),relative viability (Erlotinib + AZD7762; first compound 2 µM),relative viability (AT9283 + Luminespib; first compound 0.003 µM),relative viability (AT9283 + Luminespib; first compound 0.03 µM),relative viability (AT9283 + Luminespib; first compound 0.09487 µM),relative viability (AT9283 + Luminespib; first compound 0.3 µM),relative viability (AT9283 + Pictilisib; first compound 0.003 µM),relative viability (AT9283 + Pictilisib; first compound 0.03 µM),relative viability (AT9283 + Pictilisib; first compound 0.09487 µM),relative viability (AT9283 + Pictilisib; first compound 0.3 µM)
NCI-H838,0.8,0.491,1.18,0.694,1,0.962,1.09,0.855,0.895,0.784,0.987,0.896,0.341,0.232,0.203,0.22,0.544,0.265,0.182,0.216
LCLC-103H,1.16,1.2,1.1,0.992,0.882,0.953,0.994,0.91,0.801,0.875,0.874,0.669,0.829,0.755,0.313,0.304,0.536,0.427,0.251,0.291
A-427,1.01,1.04,1.1,0.951,1,1.04,1.12,1.05,0.735,0.763,0.843,0.767,0.822,0.486,0.319,0.176,0.744,0.606,0.19,0.208
NCI-H1755,1.06,1.01,0.957,0.9,1.01,0.933,0.937,0.872,0.487,0.438,0.499,0.379,0.607,0.446,0.553,0.407,0.437,0.395,0.296,0.261
LU99A,1.34,1.1,1.24,0.899,0.644,0.478,0.562,0.333,0.414,0.414,0.295,0.418,0.24,0.301,0.225,0.221,0.293,0.185,0.152,0.164
LCLC-97TM1,0.528,0.747,0.529,0.464,0.218,,0.316,0.259,0.291,0.309,0.356,0.196,0.662,0.634,0.137,0.157,0.171,0.141,0.0991,0.114
NCI-H1666,0.864,0.74,0.766,0.615,0.901,0.631,0.504,0.348,0.72,0.834,0.732,0.633,1.03,0.726,0.557,0.499,0.351,0.326,0.267,0.274
NCI-H2347,0.759,0.873,1.26,0.659,1.33,0.966,1.13,0.893,0.689,0.856,0.783,0.655,0.364,0.543,0.43,0.231,0.726,1.23,0.568,0.385
NCI-H441,0.724,0.471,0.383,0.219,0.688,0.655,0.743,0.466,1.2,1.06,1.1,1.11,0.432,0.347,0.344,0.263,0.359,0.469,0.138,0.186
EPLC-272H,,0.875,0.989,0.828,1.01,0.979,0.818,0.679,0.205,0.209,0.21,0.202,0.332,0.246,0.133,0.149,0.318,0.26,0.199,0.165
NCI-H647,1.05,0.961,1.36,0.795,0.955,1.18,,1.02,0.465,0.439,0.508,0.431,0.152,0.201,0.169,0.183,0.43,0.159,0.0749,0.085
NCI-H23,0.915,,1.32,0.917,0.763,0.593,0.816,0.634,0.291,0.177,0.198,0.219,0.216,0.234,0.204,0.167,0.457,0.267,0.213,0.153
NCI-H727,0.785,0.844,1,0.701,0.612,0.48,0.459,0.463,0.455,0.488,0.437,0.463,0.253,0.257,0.261,0.281,0.379,0.395,0.225,0.167
EKVX,1.13,0.513,0.323,0.17,0.835,0.403,0.315,0.116,0.686,0.693,0.423,0.219,0.874,0.836,0.555,0.307,0.419,0.411,0.199,0.142
NCI-H2087,1,1.12,0.804,0.768,1.3,,1.09,1.04,1.4,1.33,1.29,1.17,0.163,0.17,0.15,0.139,0.677,0.413,0.21,0.208
NCI-H322M,1.21,1.17,1.12,0.57,0.693,0.745,0.589,0.335,0.464,0.481,0.371,0.395,0.864,0.541,0.405,0.41,0.498,0.413,0.294,0.298
NCI-H2085,1.04,0.979,0.889,0.766,0.935,0.81,0.673,0.645,0.92,,0.732,0.454,0.585,0.477,0.403,0.341,0.404,0.417,0.19,0.196
NCI-H1915,0.982,0.989,1.05,0.992,1.09,,1.09,,0.72,0.675,,0.659,0.729,0.751,0.187,0.213,0.854,0.95,0.293,0.178
NCI-H1355,1.14,1.1,1.24,0.992,,0.742,0.685,0.518,0.794,0.687,0.674,0.682,0.6,0.702,0.375,0.239,0.435,0.345,0.168,0.159
HCC-827,0.526,0.343,0.276,0.35,0.3,0.171,0.172,0.148,0.137,0.153,0.116,0.123,0.608,0.539,0.328,0.185,0.822,0.775,0.457,0.504
RERF-LC-KJ,1.04,1.01,0.854,0.762,0.877,0.666,0.613,0.469,0.846,0.944,0.949,0.608,1.24,0.792,0.362,0.28,0.627,0.24,0.171,0.164
HOP-62,1.08,0.5,0.316,1.02,,1.05,1.05,0.977,0.702,0.638,0.541,,0.916,0.783,0.279,0.292,0.645,0.351,0.19,0.146
PC-14,0.67,0.259,0.21,0.249,0.562,0.133,0.171,0.112,0.206,0.178,0.12,0.13,0.156,0.15,0.121,0.0746,0.534,0.657,0.0566,0.0616
NCI-H2405,1.12,1.03,0.998,0.938,0.853,0.772,0.822,0.698,0.749,0.669,0.774,0.652,0.662,0.625,0.352,0.331,0.463,0.384,0.254,0.145
HARA,1.2,1.01,0.959,0.867,0.946,0.619,0.646,0.256,0.385,0.383,0.333,0.259,0.755,0.189,0.0743,0.124,0.373,0.425,0.0788,0.0662
NCI-H1437,0.482,0.499,0.57,0.393,0.924,0.965,,0.854,1.01,,,0.956,1.26,1.12,0.681,0.344,0.439,0.468,0.12,0.126
201T,1.12,1.06,1.12,1.02,0.999,0.968,0.966,,0.596,0.57,0.619,0.546,0.964,1,0.486,0.378,0.642,0.731,0.476,0.396
